# According to patent US9302999B2, “Substituted triazoles as herbicides” (E. I. DU PONT DE NEMOURS AND COMPANY, priority 2012, dated 2016):
# How the values were obtained:
# Format in all cases: in vivo
# [1] = system: field violet (Viola arvensis); experiment: Test D pre-/postemergence: field violet
# Excerpt: (§1) Seeds of plant species selected from bluegrass (annual bluegrass, Poa annua), blackgrass (Alopecurus myosuroides), canarygrass (Phalaris minor), chickweed (common chickweed, Stellaria media), galium (catchweed bedstraw, Galium aparine), bromegrass, downy (downy bromegrass, Bromus tectorum), field poppy (Papaver rhoeas), field violet (Viola arvensis), foxtail, green (green foxtail, Setaria viridis), deadnettle (henbit deadnettle, Lamium amplexicaule), ryegrass, Italian (Italian ryegrass, Lolium multiflorum), kochia (Kochia scoparia), lambsquarters (Chenopodium album), oilseed rape (Brassica napus), pigweed (Amaranthus retroflexus), Russian thistle (Salsola iberica), chamomile (scentless chamomile, Matricaria inodora), speedwell (bird's-eye speedwell, Veronica persica), barley, spring (spring barley, Hordeum vulgare), wheat, spring (spring wheat, Triticum aestivum), buckwheat, wild (wild buckwheat, Polygonum convolvulus), mustard, wild (wild mustard, Sinapis arvensis), oat, wild (wild oat, Avena fatua), radish, wild (wild radish, Raphanus raphanistrum), windgrass (Apera spica-venti), barley, winter (winter barley, Hordeum vulgare), and wheat, winter (winter wheat, Triticum aestivum) were planted into a silt loam soil and treated preemergence with test chemicals formulated in a non-phytotoxic solvent mixture which included a surfactant. At the same time, these same crop and weed species were planted in pots containing the planting medium comprising spaghnum peat moss, vermiculite, wetting agent and starter nutrients and treated with postemergence applications of the test chemicals formulated in the same manner. Plants ranged in height from 2 to 18 cm (1- to 4-leaf stage).
# (§2) Treated plants and controls were maintained in a controlled growth environment for 14 to 21 days after which time all species were compared to controls and visually evaluated. Plant response ratings, summarized in Table D, are based on a scale of 0 to 100 where 0 is no effect and 100 is complete control. A dash (-) response means no test result.
# [2] = system: Russian thistle (Salsola kali); experiment: Test C pre-/postemergence: Russian thistle; conditions: Preemergence
# Summary of the method: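 Preemergence on seeds in loam/sand, postemergence on 2–18 cm (1–4-leaf) plants in peat-based medium; compounds in non-phytotoxic solvent with surfactant. After 13–15 days in greenhouse, visual rating versus controls, 0 (no effect) to 100 (complete control).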
# [3] = system: oilseed rape (Brassica napus); experiment: Test D pre-/postemergence: oilseed rape
# Excerpt: as §1, §2
# [4] = system: nutsedge, yellow (yellow nutsedge, Cyperus esculentus); experiment: Test F pre-/postemergence: nutsedge, yellow; conditions: Preemergence
# Excerpt: (§3) Seeds of plant species selected from corn (Zea mays), soybean (Glycine max), velvetleaf (Abutilon theophrasti), lambsquarters (Chenopodium album), poinsettia, wild (wild poinsettia, Euphorbia heterophylla), pigweed, palmer (palmer pigweed, Amaranthus palmeri), waterhemp (common waterhemp, Amaranthus rudis), surinam grass (Brachiaria decumbens), crabgrass, Brazil (Brazilian crabgrass, Digitaria horizontalis), panicum, fall (fall panicum Panicum dichotomiflorum), crabgrass, large (large crabgrass, Digitaria sanguinalis), foxtail, giant (giant foxtail, Setaria faberii), foxtail, green (green foxtail Setaria viridis), goosegrass (Eleusine indica), ragweed (common ragweed, Ambrosia elatior), barnyardgrass (Echinochloa crus-galli), sandbur (southern sandbur, Cenchrus echinatus), arrowleaf sida (Sida rhombifolia), ryegrass, Italian (Italian ryegrass, Lolium multiflorum), dayflower, VA (Virginia (VA) dayflower, Commelina virginica), field bindweed (Convolvulus arvensis), cocklebur (common cocklebur, Xanthium strumarium), morningglory (Ipomoea coccinea), nightshade (eastern black nightshade, Solanum ptycanthum), kochia (Kochia scoparia), nutsedge, yellow (yellow nutsedge, Cyperus esculentus), johnsongrass (Sorghum halepense), smartweed (ladysthumb smartweed, Polygonum persicaria), and beggarticks (hairy beggarticks, Bidens pilosa), were planted into a silt loam soil and treated preemergence with test chemicals formulated in a non-phytotoxic solvent mixture which included a surfactant. At the same time, plants selected from these crop and weed species and also pigweed (Amaranthus retroflexus), waterhemp_RES1 (ALS/Triazine resistant common waterhemp, Amaranthus rudis) and waterhemp_RES2 (ALS/HPPD resistant common waterhemp, Amaranthus rudis) were planted in pots containing a planting medium comprising spaghnum peat moss, vermiculite, wetting agent and starter nutrients treated with postemergence applications of some of the test chemicals formulated in the same manner. Plants ranged in height from 2 to 18 cm for postemergence treatments (1- to 4-leaf stage).
# as §2, with “greenhouse” for “controlled growth environment”, “days,” for “days”, “E,” for “D,”
# [5] = system: field bindweed (Convolvulus arvensis); experiment: Test F pre-/postemergence: field bindweed
# Excerpt: as §3
# as §2, with “greenhouse” for “controlled growth environment”, “days,” for “days”, “E,” for “D,”
# [6] = Postemergence, 31 g ai/ha, scale 0 to 100 (0 no effect, 100 complete control)
# [7] = Postemergence, 62 g ai/ha, scale 0 to 100 (0 no effect, 100 complete control)
# [8] = Postemergence, 125 g ai/ha, scale 0 to 100, 0 no effect, 100 complete control
# [9] = Postemergence, 250 g ai/ha, scale 0 to 100 (0 no effect, 100 complete control)
# [10] = Postemergence, 16 g ai/ha, scale 0 to 100
# [11] = Preemergence, 16 g ai/ha, scale 0 to 100, 0 no effect, 100 complete control
# [12] = Preemergence, 31 g ai/ha, scale 0 to 100, 0 no effect, 100 complete control
# [13] = Preemergence, 62 g ai/ha, scale 0 to 100
# [14] = Preemergence, 125 g ai/ha, scale 0 to 100
# [15] = Preemergence, 250 g ai/ha, scale 0 to 100
# [16] = 31 g ai/ha, scale of 0 to 100, 0 is no effect, 100 is complete control
# [17] = 125 g ai/ha, scale 0 to 100, 0 no effect, 100 complete control
# [18] = 250 g ai/ha, scale 0 to 100, 0 no effect, 100 complete control
# [19] = 62 g ai/ha, scale of 0 to 100, 0 is no effect, 100 is complete control
# [20] = 16 g ai/ha, scale 0 to 100, 0 no effect, 100 complete control
# [21] = 31 g ai/ha, scale 0 to 100, 0 no effect, 100 complete control
# [22] = Postemergence, 250 g ai/ha, scale 0 to 100
# [23] = Postemergence, 31 g ai/ha, scale 0 to 100
# [24] = Postemergence, 125 g ai/ha, scale 0 to 100
Structure (SMILES),"Plant response rating: Field Violet [1, 6]","Plant response rating: Field Violet [1, 7]","Plant response rating: Field Violet [1, 8]","Plant response rating, Field Violet [1, 10]","Plant response rating, Russian Thistle [2, 16]","Plant response rating, Russian Thistle [2, 17]","Plant response rating, Russian Thistle [2, 18]","Plant response rating: Oilseed Rape [3, 6]","Plant response rating: Oilseed Rape [3, 7]","Plant response rating: Oilseed Rape [3, 8]","Plant response rating, Oilseed Rape [3, 10]","Plant response rating, Nutsedge, Yellow [4, 20]","Plant response rating, Nutsedge, Yellow [4, 21]","Plant response rating, Nutsedge, Yellow ([4]; 125 g ai/ha, scale 0 to 100)","Plant response rating, Nutsedge, Yellow ([4]; 250 g ai/ha, scale 0 to 100)","Plant response rating, Field Bindweed [5, 11]","Plant response rating, Field Bindweed [5, 12]","Plant response rating, Field Bindweed [5, 13]","Plant response rating, Field Bindweed [5, 14]","Plant response rating, Field Bindweed [5, 15]",further results
Cc1nn(-c2ccc(C(F)(F)F)cc2)nc1Oc1ccnc(C(F)(F)F)c1 [Compound 120],70,100,100,70,0,85,100,50,80,90,20,–,–,–,–,–,–,–,–,–,"Plant response rating: Field Violet [1, 9]: 100; Plant response rating, Field Violet [1, 11]: 75; Plant response rating, Field Violet [1, 12]: 90; Plant response rating, Field Violet [1, 13]: 95; Plant response rating, Field Violet [1, 14]: 100; Plant response rating, Field Violet [1, 15]: 100; Plant response rating: Oilseed Rape [3, 9]: 98; Plant response rating, Oilseed Rape [3, 11]: 0; Plant response rating, Oilseed Rape [3, 12]: 10; Plant response rating, Oilseed Rape [3, 13]: 10; Plant response rating, Oilseed Rape [3, 14]: 30; Plant response rating, Oilseed Rape [3, 15]: 70"
COc1nn(-c2ccc(C(F)(F)F)cc2)nc1Cc1ccnc(C(F)F)c1 [Compound 138],70,75,85,60,85,90,100,95,100,100,85,–,–,–,–,–,–,–,–,–,"Plant response rating: Field Violet [1, 9]: 90; Plant response rating, Russian Thistle [2, 19]: 90; Plant response rating: Oilseed Rape [3, 9]: 100"
COc1nn(-c2cccc(F)c2)nc1Cc1ccnc(C(F)(F)F)c1 [Compound 139],–,–,–,–,–,–,5,–,–,–,–,0,0,0,0,0,0,0,0,20,–
Cc1nn(-c2ccc(F)cc2F)nc1Oc1ccnc(C(F)(F)F)c1 [Compound 146],–,–,–,–,0,80,95,–,–,–,–,0,0,0,0,0,0,0,0,25,"Plant response rating, Russian Thistle [2, 19]: 0"
CCc1nn(-c2ccc(F)cc2)nc1Cc1ccnc(C(F)(F)F)c1 [Compound 154],–,–,–,–,–,–,–,–,–,–,–,0,0,0,0,0,0,5,35,95,–
CCc1nn(-c2ccc(C(F)(F)F)cc2)nc1Cc1ccnc(C(F)(F)F)c1 [Compound 155],100,100,95,95,–,–,–,100,100,100,85,–,–,25,30,–,–,85,95,100,"Plant response rating, Field Violet [1, 11]: 90; Plant response rating, Field Violet [1, 12]: 95; Plant response rating, Field Violet [1, 13]: 95; Plant response rating, Field Violet [1, 14]: 100; Plant response rating, Oilseed Rape [3, 11]: 0; Plant response rating, Oilseed Rape [3, 12]: 5; Plant response rating, Oilseed Rape [3, 13]: 100; Plant response rating, Oilseed Rape [3, 14]: 100"
CCc1nn(-c2ccc(C(F)(F)F)cc2)nc1Oc1ccnc(C(F)(F)F)c1 [Compound 169],–,–,–,–,–,–,–,–,–,–,–,0,20,25,25,0,0,–,20,80,"Plant response rating, Field Bindweed [5, 22]: 55; Plant response rating, Field Bindweed [5, 10]: 20; Plant response rating, Field Bindweed [5, 23]: 20; Plant response rating, Field Bindweed ([5]; Postemergence, 62 g ai/ha, scale 0 to 100): 30; Plant response rating, Field Bindweed [5, 24]: 35"
CCc1nn(-c2ccc(F)c(F)c2)nc1Oc1ccnc(C(F)(F)F)c1 [Compound 171],–,–,–,–,–,–,–,–,–,–,–,0,0,0,0,0,0,0,5,5,–
CCCc1nn(-c2ccc(F)c(F)c2)nc1Oc1ccnc(C(F)(F)F)c1 [Compound 172],–,–,–,–,–,–,–,–,–,–,–,–,25,25,25,–,5,–,95,95,"Plant response rating, Field Bindweed [5, 22]: 60; Plant response rating, Field Bindweed [5, 23]: 25; Plant response rating, Field Bindweed [5, 24]: 60"
